Experimental data as given in patent US20260028326A1, “COMPOUND BASED ON ISOINDOLINE-SUBSTITUTED GLUTARIMIDE BACKBONE AND USE THEREOF” (GLUETACS THERAPEUTICS (SHANGHAI) CO., LTD., priority 2022, published 2026).

How the values were obtained:
[1] = molecular target: human Cereblon WT GST-tagged protein (Homo sapiens (Human), UniProt Q96SW2); assay: CRBN-binding affinity, HTRF (CEREBLON BINDING kit)
Method in brief: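 HTRF competition readout: compounds compete with a thalidomide-Re conjugate for GST-tagged wild-type human CRBN detected via Eu-labelled anti-GST antibody. Inhibition rate derived relative to protein-free blank wells.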

IKZF1 protein = IKZF1 protein (Homo sapiens (Human), UniProt Q13422+Q96SW2); assay: Western-blot assay of substrate protein degradation in hPBMC, IKZF1; type: cell-based; conditions: for residual substrate protein level, IKZF1: hPBMC cells, compound 500 nM, 24 hours, Western blot
Chain of IKZF1 protein (Q13422 whole entry): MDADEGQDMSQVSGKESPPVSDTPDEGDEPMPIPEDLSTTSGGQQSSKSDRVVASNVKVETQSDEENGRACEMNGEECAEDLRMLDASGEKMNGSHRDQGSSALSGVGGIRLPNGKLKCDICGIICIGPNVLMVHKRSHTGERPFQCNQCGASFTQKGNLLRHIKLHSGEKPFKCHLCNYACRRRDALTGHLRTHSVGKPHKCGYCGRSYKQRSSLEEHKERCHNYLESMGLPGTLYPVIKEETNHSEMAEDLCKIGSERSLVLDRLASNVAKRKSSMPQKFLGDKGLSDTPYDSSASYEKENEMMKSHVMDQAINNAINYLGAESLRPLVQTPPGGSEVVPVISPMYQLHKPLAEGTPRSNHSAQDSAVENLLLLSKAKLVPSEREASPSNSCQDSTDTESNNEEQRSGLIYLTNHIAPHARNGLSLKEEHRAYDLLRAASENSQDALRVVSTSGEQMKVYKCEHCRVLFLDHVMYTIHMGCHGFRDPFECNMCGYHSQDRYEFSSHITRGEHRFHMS
Chain of IKZF1 protein (Q96SW2 whole entry): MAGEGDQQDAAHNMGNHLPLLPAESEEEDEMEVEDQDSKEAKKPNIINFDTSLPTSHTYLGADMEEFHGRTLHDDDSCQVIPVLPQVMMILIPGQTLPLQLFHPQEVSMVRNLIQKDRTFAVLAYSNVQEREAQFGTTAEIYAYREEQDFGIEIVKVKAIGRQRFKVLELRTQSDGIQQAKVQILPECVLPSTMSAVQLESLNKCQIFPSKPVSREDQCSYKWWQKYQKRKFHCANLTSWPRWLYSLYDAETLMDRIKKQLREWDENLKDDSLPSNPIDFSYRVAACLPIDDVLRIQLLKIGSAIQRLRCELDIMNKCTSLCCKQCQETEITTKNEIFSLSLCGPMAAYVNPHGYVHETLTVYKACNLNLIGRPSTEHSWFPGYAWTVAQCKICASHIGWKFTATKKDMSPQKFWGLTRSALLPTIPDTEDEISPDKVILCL
Chain of IKZF1 protein (Q16531 whole entry partner): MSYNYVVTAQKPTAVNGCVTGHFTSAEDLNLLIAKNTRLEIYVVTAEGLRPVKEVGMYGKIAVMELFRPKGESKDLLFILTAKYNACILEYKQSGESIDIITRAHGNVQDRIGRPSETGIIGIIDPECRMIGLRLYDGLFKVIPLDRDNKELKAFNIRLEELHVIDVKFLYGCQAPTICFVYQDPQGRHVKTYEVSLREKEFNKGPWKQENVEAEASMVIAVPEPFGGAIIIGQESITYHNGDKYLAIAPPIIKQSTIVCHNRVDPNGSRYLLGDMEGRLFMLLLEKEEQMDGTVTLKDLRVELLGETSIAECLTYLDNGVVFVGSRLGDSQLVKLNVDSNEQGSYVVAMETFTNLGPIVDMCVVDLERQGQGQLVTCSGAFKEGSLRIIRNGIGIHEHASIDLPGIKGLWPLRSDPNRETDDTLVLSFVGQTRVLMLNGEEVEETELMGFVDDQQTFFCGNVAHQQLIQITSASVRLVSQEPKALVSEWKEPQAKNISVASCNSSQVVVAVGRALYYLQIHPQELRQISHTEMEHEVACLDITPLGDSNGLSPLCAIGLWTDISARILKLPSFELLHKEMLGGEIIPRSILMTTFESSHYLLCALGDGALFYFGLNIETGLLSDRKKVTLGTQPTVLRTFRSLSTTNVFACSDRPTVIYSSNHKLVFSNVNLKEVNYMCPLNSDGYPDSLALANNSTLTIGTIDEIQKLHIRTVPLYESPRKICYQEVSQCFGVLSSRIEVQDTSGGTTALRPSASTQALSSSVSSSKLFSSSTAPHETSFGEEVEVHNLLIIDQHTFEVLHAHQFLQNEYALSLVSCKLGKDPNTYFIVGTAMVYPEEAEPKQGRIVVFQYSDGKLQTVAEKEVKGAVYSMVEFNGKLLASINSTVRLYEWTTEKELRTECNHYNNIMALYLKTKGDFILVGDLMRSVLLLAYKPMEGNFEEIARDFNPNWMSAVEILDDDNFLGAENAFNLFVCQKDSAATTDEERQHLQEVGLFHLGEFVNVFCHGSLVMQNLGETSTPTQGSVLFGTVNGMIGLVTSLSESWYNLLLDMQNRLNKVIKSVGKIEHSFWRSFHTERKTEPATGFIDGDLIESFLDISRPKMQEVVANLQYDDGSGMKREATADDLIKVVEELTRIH

IKZF3 protein = IKZF3 protein (Homo sapiens (Human), UniProt Q96SW2+Q9UKT9); assay: Western-blot assay of substrate protein degradation in hPBMC, IKZF3; type: cell-based; conditions: for residual substrate protein level, IKZF3: hPBMC cells, compound 500 nM, 24 hours, Western blot
Chain of IKZF3 protein (Q9UKT9 whole entry): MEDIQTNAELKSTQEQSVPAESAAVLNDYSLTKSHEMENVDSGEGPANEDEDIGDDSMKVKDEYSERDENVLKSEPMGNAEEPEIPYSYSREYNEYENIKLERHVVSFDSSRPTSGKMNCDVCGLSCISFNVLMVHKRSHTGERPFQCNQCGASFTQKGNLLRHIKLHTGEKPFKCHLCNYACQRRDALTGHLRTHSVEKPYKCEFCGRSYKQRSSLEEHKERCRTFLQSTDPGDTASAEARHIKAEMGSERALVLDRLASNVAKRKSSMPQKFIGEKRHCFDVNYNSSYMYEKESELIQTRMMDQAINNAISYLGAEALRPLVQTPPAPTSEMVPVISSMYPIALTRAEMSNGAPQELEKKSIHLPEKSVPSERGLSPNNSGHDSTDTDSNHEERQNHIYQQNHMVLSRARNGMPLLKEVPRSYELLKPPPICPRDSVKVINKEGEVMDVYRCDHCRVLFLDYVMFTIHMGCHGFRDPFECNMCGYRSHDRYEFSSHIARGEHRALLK
Chain of IKZF3 protein (Q96SW2 whole entry): as the sequence (Q96SW2 whole entry) above
Chain of IKZF3 protein (Q16531 whole entry partner): as the sequence (Q16531 whole entry partner) above

GSPT1 protein = GSPT1 protein (Homo sapiens (Human), UniProt P15170+Q96SW2); assay: Western-blot assay of substrate protein degradation in hPBMC, GSPT1; type: cell-based; conditions: for residual substrate protein level, GSPT1: hPBMC cells, compound 500 nM, 24 hours, Western blot
Chain of GSPT1 protein (P15170 whole entry): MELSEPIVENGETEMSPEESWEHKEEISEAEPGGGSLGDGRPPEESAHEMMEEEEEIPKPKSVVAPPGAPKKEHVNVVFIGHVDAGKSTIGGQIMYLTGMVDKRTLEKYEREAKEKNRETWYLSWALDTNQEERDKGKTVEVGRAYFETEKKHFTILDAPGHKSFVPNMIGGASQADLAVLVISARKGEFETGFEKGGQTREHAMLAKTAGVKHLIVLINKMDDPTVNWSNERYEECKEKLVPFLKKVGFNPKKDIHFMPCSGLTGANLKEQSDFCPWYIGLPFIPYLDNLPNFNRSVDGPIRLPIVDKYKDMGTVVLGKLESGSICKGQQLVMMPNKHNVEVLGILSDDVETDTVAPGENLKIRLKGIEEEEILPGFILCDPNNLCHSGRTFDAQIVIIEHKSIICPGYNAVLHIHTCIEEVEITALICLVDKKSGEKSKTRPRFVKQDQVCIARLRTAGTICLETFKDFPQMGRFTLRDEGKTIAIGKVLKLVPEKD
Chain of GSPT1 protein (Q96SW2 whole entry): as the sequence (Q96SW2 whole entry) above
Chain of GSPT1 protein (Q16531 whole entry partner): as the sequence (Q16531 whole entry partner) above

Mino cells = assay: Tumor cell proliferation IC50 (CCK-8), Mino; conditions: Homo sapiens, 72 h, read-out: IC50 for inhibiting the proliferation of tumor cells, Mino;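 also: cell viability assessed with CCK-8 reagent after compound exposure, IC50 derived from plotted growth inhibition curves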
MM.1S cells = assay: Tumor cell proliferation IC50 (CCK-8), MM.1S; conditions: Homo sapiens, MM1.S, 72 h, read-out: IC50 for inhibiting the proliferation of tumor cells, MM.1S;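 also: viability of cultured cells read by CCK-8 reagent after compound exposure, growth inhibition curves fitted to derive IC50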
Daudi cells = assay: Tumor cell proliferation IC50 (CCK-8), Daudi; conditions: Homo sapiens, read-out: IC50 for inhibiting the proliferation of tumor cells, Daudi;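 also: cell viability read with CCK-8 reagent after compound exposure of Daudi cells, IC50 derived from plotted growth inhibition curves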
CCRF-CEM cells = assay: Tumor cell proliferation IC50 (CCK-8), CCRF-CEM; conditions: Homo sapiens, 96 h, read-out: IC50 for inhibiting the proliferation of tumor cells, CCRF-CEM;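 also: cell viability measured with CCK-8 reagent after compound treatment, IC50 taken from plotted growth inhibition curves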
[2] = hPBMC, 24 h, serially diluted 0.03-1000 nM

Chain of human Cereblon WT GST-tagged protein (Q96SW2 whole entry): as the sequence (Q96SW2 whole entry) above

Row | IC50 [1] | IC50 (Mino cells) | IC50 (MM.1S cells) | IC50 (Daudi cells) | IC50 (CCRF-CEM cells) | concentration at which significant degradation effects on IKZF1 protein are exhibited (FIG. 1) (IKZF1 protein; [2]) | concentration at which significant degradation effects on IKZF3 protein are exhibited (FIG. 1) (IKZF3 protein; [2]) | concentration at which significant degradation effects on GSPT1 protein are exhibited (FIG. 1) (GSPT1 protein; [2]) | SMILES | residual substrate protein level, IKZF1 (IKZF1 protein) | residual substrate protein level, IKZF3 (IKZF3 protein) | residual substrate protein level, GSPT1 (GSPT1 protein)
1 | 700 nM | 10 to 50 nM | 10 to 50 nM | 50 to 100 nM | – | – | – | – | O=C1CCC(N2Cc3c(ccc(CN4CCN(CC5=C(c6ccc(F)cc6)CCCC5)CC4)c3F)C2=O)C(=O)N1 (centres unmarked) [GT-05466, 3-(4-fluoro-5-((4-((4′-fluoro-3,4,5,6-tetrahydro-[1,1′-biphenyl]-2-yl)methyl)piperazin-1-yl)methyl)-1-oxoisoindolin-2-yl)piperidine-2,6-dione] | A (A represents a residual substrate protein level of <50%) | A (A represents a residual substrate protein level of <50%) | A (A represents a residual substrate protein level of <50%)
2 | 590 nM | 100 to 500 nM | 10 to 50 nM | – | 100 to 500 nM | < 3 nM | < 3 nM | < 3 nM | O=C1CCC(N2Cc3cc(CN4CC5(CCN(C(=O)c6ccccc6-c6ccc(Cl)cc6)CC5)C4)ccc3C2=O)C(=O)N1 (centres unmarked) [GT-05620, 3-(5-((7-(4′-chloro-[1,1′-biphenyl]-2-carbonyl)-2,7-diazaspiro[3.5]nonan-2-yl)methyl)-1-oxoisoindolin-2-yl)piperidine-2,6-dione] | – | – | –
3 | 540 nM | 10 to 50 nM | 50 to 100 nM | – | 100 to 500 nM | – | – | – | O=C1CCC(N2Cc3cc(CN4CCN(Cc5ccccc5-c5cncs5)CC4)ccc3C2=O)C(=O)N1 (centres unmarked) [GT-05684, 3-(1-oxo-5-((4-(2-(thiazol-5-yl)benzyl)piperazin-1-yl)methyl)isoindolin-2-yl)piperidine-2,6-dione] | A (A represents a residual substrate protein level of <50%) | A (A represents a residual substrate protein level of <50%) | A (A represents a residual substrate protein level of <50%)
4 | 660 nM | 50 to 100 nM | 10 to 50 nM | – | 10 to 50 nM | – | – | – | O=C1CCC(N2Cc3cc(CN4CC5(C4)CN(Cc4ccccc4-c4ccc(Cl)cc4)C5)ccc3C2=O)C(=O)N1 (centres unmarked) [GT-05709, 3-(5-((6-((4′-chloro-[1,1′-biphenyl]-2-yl)methyl)-2,6-diazaspiro[3.3]heptan-2-yl)methyl)-1-oxoisoindolin-2-yl)piperidine-2,6-dione] | A (A represents a residual substrate protein level of <50%) | A (A represents a residual substrate protein level of <50%) | A (A represents a residual substrate protein level of <50%)

The next lines start with the compound.

Row | SMILES | IC50 [1] | IC50 (Mino cells) | IC50 (MM.1S cells) | IC50 (Daudi cells) | IC50 (CCRF-CEM cells) | concentration at which significant degradation effects on IKZF1 protein are exhibited (FIG. 1) (IKZF1 protein; [2]) | concentration at which significant degradation effects on IKZF3 protein are exhibited (FIG. 1) (IKZF3 protein; [2]) | concentration at which significant degradation effects on GSPT1 protein are exhibited (FIG. 1) (GSPT1 protein; [2]) | residual substrate protein level, IKZF1 (IKZF1 protein) | residual substrate protein level, IKZF3 (IKZF3 protein) | residual substrate protein level, GSPT1 (GSPT1 protein)
5 | O=C1CCC(N2Cc3cc(CN4CC5CCC(C4)N5C(=O)c4ccccc4-c4ccc(Cl)cc4)ccc3C2=O)C(=O)N1 (centres unmarked) [GT-05542, 3-(5-((8-(4′-chloro-[1,1′-biphenyl]-2-carbonyl)-3,8-diazabicyclo[3.2.1]octan-3-yl)methyl)-1-oxoisoindolin-2-yl)piperidine-2,6-dione] | 440 nM | < 5 nM | 10 to 50 nM | – | 10 to 50 nM | – | – | – | – | – | –
6 | O=C1CCC(N2Cc3cc(CN4CCN(Cc5ccc(-c6ccc(Cl)cc6)nc5)CC4)ccc3C2=O)C(=O)N1 (centres unmarked) [GT-05632, 3-(5-((4-((6-(4-chlorophenyl)pyridin-3-yl)methyl)piperazin-1-yl)methyl)-1-oxoisoindolin-2-yl)piperidine-2,6-dione] | 720 nM | < 5 nM | 100 to 500 nM | 10 to 50 nM | – | – | – | – | – | – | –
7 | O=C1CCC(N2Cc3cc(CN4CCN(Cc5ccc(-c6ccncc6)nc5)CC4)ccc3C2=O)C(=O)N1 (centres unmarked) [GT-05633, 3-(5-((4-([2,4′-bipyridin]-5-ylmethyl)piperazin-1-yl)methyl)-1-oxoisoindolin-2-yl)piperidine-2,6-dione] | 760 nM | < 5 nM | – | 100 to 500 nM | – | – | – | – | A (A represents a residual substrate protein level of <50%) | A (A represents a residual substrate protein level of <50%) | B (B represents a residual substrate protein level of >50%)
8 | O=C1CCC(N2Cc3cc(C(=O)N4CC5CN(Cc6ccccc6-c6ccc(Cl)cc6)CC5C4)ccc3C2=O)C(=O)N1 (centres unmarked) [GT-05642, 3-(5-(5-((4′-chloro-[1,1′-biphenyl]-2-yl)methyl)octahydropyrrolo[3,4-c]pyrrole-2-carbonyl)-1-oxoisoindolin-2-yl)piperidine-2,6-dione] | 490 nM | – | 100 to 500 nM | – | 50 to 100 nM | – | – | – | B (B represents a residual substrate protein level of >50%) | B (B represents a residual substrate protein level of >50%) | A (A represents a residual substrate protein level of <50%)
9 | O=C1CCC(N2Cc3cc(C(=O)N4CCC(Nc5ccccc5-c5ccc(Cl)cc5)CC4)ccc3C2=O)C(=O)N1 (centres unmarked) [GT-05646, 3-(5-(4-((4′-chloro-[1,1′-biphenyl]-2-yl)amino)piperidine-1-carbonyl)-1-oxoisoindolin-2-yl)piperidine-2,6-dione] | 1020 nM | – | 100 to 500 nM | – | 100 to 500 nM | – | – | – | B (B represents a residual substrate protein level of >50%) | B (B represents a residual substrate protein level of >50%) | A (A represents a residual substrate protein level of <50%)
10 | CC1(C)CCC(C(=O)N2CC3(CN(Cc4ccc5c(c4)CN(C4CCC(=O)NC4=O)C5=O)C3)C2)=C(c2ccc(Cl)cc2)C1 (centres unmarked) [GT-05681, 3-(5-((6-(4′-chloro-5,5-dimethyl-3,4,5,6-tetrahydro-[1,1′-biphenyl]-2-carbonyl)-2,6-diazaspiro[3.3]heptan-2-yl)methyl)-1-oxoisoindolin-2-yl)piperidine-2,6-dione] | 460 nM | 100 to 500 nM | 50 to 100 nM | – | 100 to 500 nM | – | – | – | B (B represents a residual substrate protein level of >50%) | A (A represents a residual substrate protein level of <50%) | A (A represents a residual substrate protein level of <50%)
11 | CC1(C)CCC(CN2CCN(Cc3ccc4c(c3)CN(C3CCC(=O)NC3=O)C4=O)CC2)=C(c2ccco2)C1 (centres unmarked) [GT-05790, 3-(5-((4-((2-(furan-2-yl)-4,4-dimethylcyclohex-1-en-1-yl)methyl)piperazin-1-yl)methyl)-1-oxoisoindolin-2-yl)piperidine-2,6-dione] | 570 nM | 10 to 50 nM | 10 to 50 nM | – | 50 to 100 nM | – | – | – | – | – | –
12 | Cc1ccc(C2=C(CN3CCN(Cc4ccc5c(c4)C(=O)N(C4CCC(=O)NC4=O)C5=O)CC3)CCC(C)(C)C2)cc1 (centres unmarked) [GT-05793, 2-(2,6-dioxopiperidin-3-yl)-5-((4-((4′,5,5-trimethyl-3,4,5,6-tetrahydro-[1,1′-biphenyl]-2-yl)methyl)piperazin-1-yl)methyl)isoindoline-1,3-dione] | – | 100 to 500 nM | 100 to 500 nM | – | 100 to 500 nM | – | – | – | B (B represents a residual substrate protein level of >50%) | A (A represents a residual substrate protein level of <50%) | A (A represents a residual substrate protein level of <50%)
